In ChEMBL document CHEMBL1122975, “Potential inhibitors of S-adenosylmethionine-dependent methyltransferases. 9. 2',3'-Dialdehyde derivatives of carbocyclic purine nucleosides as inhibitors of S-adenosylhomocysteine hydrolase” (J Med Chem, 1985) one finds Control, Inhibition and inhibition data, which are given here for twelve compounds.

In assay [1] the test system is L cells. In words: Percentage control of incorporation of [3H]thymidine into DNA of uninfected L-cell cultures after 72 hr exposure. The format is functional, Mus musculus, L929. Details: concentration or dose not given beside the values.
Assay [2] has as its system L cells. Description: Percentage control of incorporation of [3H]thymidine into DNA of uninfected L-cell cultures after 36h exposure. The arrangement: concentration or dose not given beside the values. The format is functional, Mus musculus, L929.
The subject of assay [3] is L929. In words: Percentage inhibition of plaque formation, after 72 hr of incubation in virus plaque assay, prepared from monolayer cultures of mouse L 929 cells. The format is functional. The arrangement: concentration or dose not given beside the values.
Assay [4] has as its system Adenosylhomocysteinase (Bos taurus). Description: Compound is evaluated for the inhibition of bovine liver S-adenosyl-homocysteine hydrolase at a concentration of 2.0 mM.

On to `Nc1nccc2c1ncn2C(C=O)CC(C=O)CO` (configuration not stated), for which the Control in assay [1] was 133%; in assay [2], 107%. The compound further displayed an Inhibition in assay [3] of 91%.
On to `Nc1ncnc2c1nnn2C1CC(CO)C(O)C1O` (configuration not stated), for which the results for the Control in assay [1] and in assay [2] were 146% and 89%, respectively. In assay [3], this compound showed an Inhibition of 7%.
Turning to `Nc1ncnc2c1ncn2C(C=O)CC(C=O)CO` (configuration not stated), the Control in assay [1] was determined as 130%; in assay [2], 67%. The compound also gave an Inhibition in assay [3] of 75%.
The compound `CNc1ncnc2c1ncn2C(CO)CC(CO)CO` (configuration not stated) yielded an inhibition in assay [4] of 82%. In assay [3], this compound returned an Inhibition of 7%.
As to `CNc1ncnc2c1ncn2C(C=O)CC(C=O)CO` (configuration not stated), the results for the Control in assay [1] and in assay [2] were 106% and 63%, respectively. In assay [3], this compound registered an Inhibition of 60%.
Take `CNc1ncnc2c1ncn2C1CC(CO)C(O)C1O` (configuration not stated): the Control in assay [1] came out at 137%; in assay [2], 95%. This compound also registered an Inhibition in assay [3] of 19%.
With `Nc1ncnc2c1ncn2[C@@H]1C[C@H](CO)[C@@H](O)[C@H]1O` [ARISTEROMYCIN], the Control in assay [1] is listed as 134%; in assay [2], 81%. In addition, in assay [3], the Inhibition stood at 65%.
On the same counts, the results for `Nc1ncnc2c1nnn2C(C=O)CC(C=O)CO` (configuration not stated) are 81%, 91% and 63%.
`Nc1nccc2c1ncn2[C@@H]1C[C@H](CO)[C@@H](O)[C@H]1O` [3-DEAZAARISTEROMYCIN A]: the Control in assay [1] was found to be 246%; in assay [2], 86%. Besides, the Inhibition in assay [3] turned out to be 95%.
Consider `Nc1ncnc2c1ncn2C(CO)CC(CO)CO` (configuration not stated), for which the inhibition in assay [4] was determined as 98%. The compound further had an Inhibition in assay [3] of 13%.
As to `Nc1nccc2c1ncn2C(CO)CC(CO)CO` (configuration not stated), the inhibition in assay [4] was found to be 94%. In addition, the Inhibition in assay [3] was 9%.
Turning to `Nc1ncnc2c1nnn2C(CO)CC(CO)CO` (configuration not stated), the inhibition in assay [4] was 94%. The Inhibition in assay [3] amounted to 11%.
